Results on ten compounds are retold here after publication PMC3228873 (Journal of medicinal chemistry, 2011).

Assay [1] concerns the target TbrPDEB1 (Trypanosoma brucei, UniProt Q8WQX9). Nature of the assay: TbrPDE assay, recombinant TbrPDEB1 catalytic domain. In kind it is biochemical. As to conditions: for IC50: read-out: TbrPDEB1 IC50, Table 1, 10% DMSO, 25 μM cAMP, ">> x μM" if <25% inh at x μM, "> x μM" if 25-50% inh at x μM; for activity against TbrPDEB1 (in words): benchmark screening; for inhibition at 100 µM / inhibition at 10 µM: read-out: inhibition of TbrPDEB1.

The target in assay [2] is TbrPDEB2 (Trypanosoma brucei brucei, UniProt Q38F42). Description: TbrPDE assay, recombinant TbrPDEB2 catalytic domain. In kind it is biochemical.
Assay [3] concerns Bloodstream forms of Trypanosoma brucei brucei strain 427. Description: Trypanosome cell culture assay. In kind it is cell-based.

For orientation: IC50 means the point on the concentration scale where inhibition reaches its midpoint. With `CS(=O)(=O)Oc1ccc2c(NC(N)=O)c(C(=O)c3ccc(Cl)cc3Cl)oc2c1` [BAY 19-8004], the IC50 in assay [1] is over 10 µM; in assay [2] (read-out: TbrPDEB2 IC50, Table 1, 10% DMSO, 25 μM cAMP, ">> x μM" if <25% inh at x μM, "> x μM" if 25-50% inh at x μM), over 10 µM.
For `COc1ccc(C(=O)Nc2c(Cl)cncc2Cl)cc1OC1CCCC1` [Compound 1, piclamilast], the “inhibition of TbrPDEB1” value in assay [1] (single concentration, not stated for this compound) is on record as “over 50%”.
For `COc1cc(C(=O)Nc2c(Cl)cncc2Cl)cc(OC)c1OC` [Compound 9, N-(3,5-dichloropyridin-4-yl)-3,4,5-trimethoxybenzamide], the “activity against TbrPDEB1 (in words)” value in assay [1] is reported as “without TbrPDEB1 or B2 activity”. Further, the “activity against TbrPDEB2 (in words)” value in assay [2] was “without TbrPDEB1 or B2 activity”. Besides, the “cellular (trypanocidal) activity (in words)” value in assay [3] is recorded as “did not show cellular activity”.
By inhibition is commonly meant the share of the control response that was lost under treatment. As for `OCCN(CCO)c1nc(N2CCCCC2)c2nc(N(CCO)CCO)nc(N3CCCCC3)c2n1` [Dipyridamole (3), dipyridamole], in assay [1], the inhibition at 100 µM is over 50%.
Consider `COc1cccc(Nc2c(C(N)=O)cnc3c(C)cc(S(=O)(=O)c4cccc(C(=O)N(C)C)c4)cc23)c1` [GSK-256066, (5)], for which the inhibition at 10 µM in assay [1] was at least 50%.
Still for that read-out and setting: the figure for `Cc1noc(/C(=C/c2cccc(-c3cc(C(C)(C)S(C)(=O)=O)cc4cccnc34)c2)c2ccc(S(C)(=O)=O)cc2)n1` [L-454560 (4)] is at least 50%.
With `CCCCOc1cc(CC2CNC(=O)N2)ccc1OC` (stereo not shown) [RO 20-1724], the IC50 in assay [1] is over 100 µM.
`O=C(Nc1c(Cl)cncc1Cl)c1ccc(OC(F)F)c(OCC2CC2)c1` [Roflumilast (6), roflumilast]: the “activity against TbrPDEB1 (in words)” value in assay [1] was “essentially inactive”.
Same read-out and setting: the entry for `COc1ccc(C2CNC(=O)C2)cc1OC1CCCC1` (stereo not shown) [Rolipram (7), rolipram] is “essentially inactive”.
In the case of `COc1cc2c(cc1OC)-c1c/c(=N\c3c(C)cc(C)cc3C)n(C)c(=O)n1CC2` [Trequinsin (2), trequinsin], in assay [1], the inhibition at 100 µM is over 50%.
